Source: patent publication US9848602B2, “Use of prothioconazole to induce host defence responses” (priority 2013, dated 2017)

Assays:
[1] = system: PR1 (pathogenesis-related protein 1) gene (AT2G14610) promoter; assay: Induction of defense gene expression, GFP reporter behind the PR1 promoter; assay type: in vivo, Arabidopsis thaliana; conditions: 300 ppm, 3 days after spraying, mock (background) set as 1.00
Experimental: Arabidopsis thaliana reporter plants containing the coding sequence of a green fluorescent protein (GFP) linked to the salicylate responsive promoter sequence of the PR1 (pathogenesis-related protein 1) gene (AT2G14610) were grown for five days and then sprayed with compounds. On the 3rd day after spraying, plant fluorescence was assessed with a MacroFluo instrument from Leica Microsystems (Wetzlar, Germany). Fluorescences were quantified with the MetaMorph Microscopy Automation & Image Analysis Software (Molecular Devices, Sunnyvale, Calif., United States).

[2] = system: Arabidopsis thaliana plants (gene expression); assay: Induction of salicylic acid and pathogen response pathways, Affymetrix ATH1 gene expression analysis; assay type: in vivo; conditions: 500 g/ha spray; for total number of differentially expressed genes: p≦0.05, vs control
Experimental: Arabidopsis thaliana plants were grown on soil in climate controlled growth chambers for 33 days under defined conditions. For treatment Prothioconazole was formulated to result in a final concentration corresponding to 500 g/ha in a spray application. The plants were sprayed in biological replicates. A control group of similar grown plants was equally treated with a blank formulation. Aerial tissues of the treated plants were harvested 3 h and 6 h after treatment, frozen in liquid nitrogen and stored at −80° C. for further processing. Each biological replicate (3 per treatment and time point) consisted of a pool of 10 plants.
Total RNA was prepared from each sample using the RNeasy Midi kit from Qiagen #75142 according to the manufacturer's recommendations. The RNA was then transcribed into cDNA using Superscript II Reverse Transcriptase (Invitrogen). The biotin-labeled cRNA probes for hybridization were generated from the cDNA using the BioArray HighYield® RNA transcript labeling kit (T7) (Enzo Life Sceinces # ENZ42655-40) according the manufacturer's recommendations. The labelled cRNA probes were subsequently hybridized onto Affymetrix GeneChip Arabidopsis ATH1 Genome Arrays (cat.#900385).
The samples were analyzed using the Affymetrix GeneChip System. The resulting data were processed and analyzed using Genedata Refiner Array, Genedata Analyst, RobiNA (Lohse et al. 2012, Nucleic Acids Res) and MapMan (Usadel et al. 2009, Plant Cell Environment) software packages.

[3] = 3 h after treatment, >2-fold change, p≦0.05
[4] = 6 h after treatment, >2-fold change, p≦0.05

Row | SMILES | Relative fluorescence of GFP [1] | number of down-regulated genes [2, 3] | number of up-regulated genes [2, 3] | total number of differentially expressed genes ([2]; 3 h after treatment, >2-fold change) | induction of At1g57630 [Toll-Interleukin-Resistance domain-containing protein] ([2]; 6 h after treatment) [fold] | induction of At1g66090 [TIR-NBS class of disease resistance protein] ([2]; 6 h after treatment) [fold] | induction of At3g59930 [Defensin-like protein 206] ([2]; 6 h after treatment) [fold] | induction of At4g36010 [pathogenesis-related thaumatin family protein] ([2]; 6 h after treatment) [fold] | number of downregulated genes [2, 4] | number of up-regulated genes [2, 4] | total number of differentially expressed genes ([2]; 6 h after treatment, >2-fold change) | induction of At1g05680 (UDP-glucose: salicylic acid glucosyltransferase) ([2]; after 3 h) [fold] | induction of At2g43820 (UDP-glucose: salicylic acid glucosyltransferase) ([2]; after 3 h) [fold] | induction of At1g05680 (UDP-glucose: salicylic acid glucosyltransferase) ([2]; after 6 h) [fold] | induction of At2g43820 (UDP-glucose: salicylic acid glucosyltransferase) ([2]; after 6 h) [fold]
1 | CC(C)(C)C(O)(CCc1ccc(Cl)cc1)Cn1cncn1 (centres unmarked) [Tebuconazole] | 0.73 | – | – | – | – | – | – | – | – | – | – | – | – | – | –
2 | O=C(O)c1ccccc1O [Salicylic acid, salicylic acid] | 1.96 | – | – | – | – | – | – | – | – | – | – | – | – | – | –
3 | OC(Cc1ccccc1Cl)(Cn1[nH]cnc1=S)C1(Cl)CC1 (centres unmarked) [Prothioconazole, 2-[2-(1-chlorocyclopropyl)-3-(2-chlorophenyl)-2-hydroxypropyl]-1,2-dihydro-3H-1,2,4-triazole-3-thione] | 2.04 | 142 | 238 | 380 | 3.4 | 2.4 | 3 | 3.8 | 148 | 299 | 447 | 3 | 2.5 | 5.5 | 2.5
